Test results from US20230107941A1, “HEPATITIS B CAPSID ASSEMBLY MODULATORS” (Venatorx Pharmaceuticals, Inc., priority 2019, published 2023).

Key:
HBV = experiment: In vitro antiviral assay: anti-HBV replication in HepAD38 cells (extracellular HBV DNA by QPCR); format: cell-based, hepatitis B virus (genotype D, serotype ayw); conditions: Hepatitis B virus, HePAD38, 168 h, 7 days incubation, extracellular HBV DNA by QPCR, read-out: Anti-HBV EC50
Summary of the method: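 Read-out is extracellular HBV DNA (copies/mL, QPCR standard curve) after 7-day exposure of tet-free HepAD38 cells to 10-fold dilutions from 1 μM down to 10 pM. Values normalised to DMSO vehicle; EC50 from 4-parameter nonlinear regression, with entecavir validating each run.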

[1] = In vitro cytotoxicity assay (MTT cell viability) in HepG2 cells; format: cell-based, human; conditions: human
Summary of the method: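 CC50 was derived by 4-parameter fit of viability relative to vehicle controls, measured as MTT formazan absorbance at 492 nm after 3–4 h of reagent and DMSO solubilization. Before that, HepG2 cells seeded overnight at 20,000/well were incubated 7 days at 37°C with compound from 30 μM down to 1.0 nM in half-log steps.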

| Compound | EC50 (HBV) [nM] | CC50 at 7 days [1] [nM] |
| --- | --- | --- |
| Cc1c(C(=O)Nc2ccc(F)c(C#N)c2)c(C)n(C)c1C(=O)C(=O)N[C@]1(C)CC[C@@H](O)CC1 [Example 16, N-(3-cyano-4-fluorophenyl)-5-(2-(((1r,4r)-4-hydroxy-1-methylcyclohexyl)amino)-2-oxoacetyl)-1,2,4-trimethyl-1H-pyrrole-3-carboxamide] | < 50 | > 30000 |
| Cc1cc(NC(=O)c2c(C)c(C(=O)C(=O)Nc3ccccc3N3CCOCC3)n(C)c2C)ccc1F [Example 52, N-(4-fluoro-3-methylphenyl)-1,2,4-trimethyl-5-(2-((2-morpholinophenyl)amino)-2-oxoacetyl)-1H-pyrrole-3-carboxamide] | 50 to 499 | 5000 to 30000 |
| Cc1cc(NC(=O)c2c(C)c(C(=O)C(=O)N[C@]3(C)CC[C@H](O)CC3)n(C)c2CC2CC2)ccc1F [Example 125, 2-(cyclopropylmethyl)-N-(4-fluoro-3-methylphenyl)-5-(2-(((1s,4s)-4-hydroxy-1-methylcyclohexyl)amino)-2-oxoacetyl)-1,4-dimethyl-1H-pyrrole-3-carboxamide] | < 50 | > 30000 |
| Cc1cc(NC(=O)c2c(C)c(C(=O)C(=O)NC3(CO)CCN(S(C)(=O)=O)CC3)n(C)c2C)ccc1F [Example 73, N-(4-fluoro-3-methylphenyl)-5-(2-((4-(hydroxymethyl)-1-(methylsulfonyl)piperidin-4-yl)amino)-2-oxoacetyl)-1,2,4-trimethyl-1H-pyrrole-3-carboxamide] | < 50 | > 30000 |
| Cc1c(C(=O)Nc2cccc(Cl)n2)c(C)n(C)c1C(=O)C(=O)N[C@H]1CC[C@@H](O)CC1 [Example 12, N-(6-chloropyridin-2-yl)-5-(2-(((1s,4s)-4-hydroxycyclohexyl)amino)-2-oxoacetyl)-1,2,4-trimethyl-1H-pyrrole-3-carboxamide] | 50 to 499 | > 30000 |
| CCC1(NC(=O)C(=O)c2c(C)c(C(=O)Nc3ccc(F)c(C)c3)c(C)n2C)CCN(C(=O)c2cnn(C)c2)CC1 [Example 38, 5-(2-((4-ethyl-1-(1-methyl-1H-pyrazole-4-carbonyl)piperidin-4-yl)amino)-2-oxoacetyl)-N-(4-fluoro-3-methylphenyl)-1,2,4-trimethyl-1H-pyrrole-3-carboxamide] | < 50 | > 30000 |
| CCC1(NC(=O)C(=O)c2c(C)c(C(=O)Nc3ccc(F)c(C)c3)c(C)n2C)CCN(C(C)=O)CC1 [Example 41, 5-(2-((1-acetyl-4-ethylpiperidin-4-yl)amino)-2-oxoacetyl)-N-(4-fluoro-3-methylphenyl)-1,2,4-trimethyl-1H-pyrrole-3-carboxamide] | < 50 | > 30000 |
| CCc1c(C(=O)Nc2ccc(F)c(C)c2)c(C)c(C(=O)C(=O)N[C@]2(C)CC[C@H](O)CC2)n1C [Example 107, 2-ethyl-N-(4-fluoro-3-methylphenyl)-5-(2-(((1s,4s)-4-hydroxy-1-methylcyclohexyl)amino)-2-oxoacetyl)-1,4-dimethyl-1H-pyrrole-3-carboxamide] | < 50 | > 30000 |
| Cc1cc(NC(=O)c2c(C)c(C(=O)C(=O)N[C@H]3CC[C@@H](O)CC3)n(C)c2-c2ccccn2)ccc1F [Example 158, N-(4-fluoro-3-methylphenyl)-5-(2-(((1s,4s)-4-hydroxycyclohexyl)amino)-2-oxoacetyl)-1,4-dimethyl-2-(pyridin-2-yl)-1H-pyrrole-3-carboxamide] | > 1000 | > 30000 |
| Cc1c(C(=O)Nc2ccc(F)c(C(N)=O)c2)c(C)n(C)c1C(=O)C(=O)NC(C)(C)C [Example 57, 5-(2-(tert-butylamino)-2-oxoacetyl)-N-(3-carbamoyl-4-fluorophenyl)-1,2,4-trimethyl-1H-pyrrole-3-carboxamide] | > 1000 | > 30000 |
| Cc1c(C(=O)Nc2cccc(B(O)O)c2)c(C)n(C)c1C(=O)C(=O)NC(C)(C)C [Example 46, (3-(5-(2-(tert-butylamino)-2-oxoacetyl)-1,2,4-trimethyl-1H-pyrrole-3-carboxamido)phenyl)boronic acid] | 500 to 1000 | > 30000 |
| Cc1cc(NC(=O)c2c(C)c(C(=O)C(=O)NCC(C)(C)O)n(C)c2CC2CC2)ccc1F [Example 127, 2-(cyclopropylmethyl)-N-(4-fluoro-3-methylphenyl)-5-(2-((2-hydroxy-2-methylpropyl)amino)-2-oxoacetyl)-1,4-dimethyl-1H-pyrrole-3-carboxamide] | < 50 | 5000 to 30000 |
| Cc1cc(NC(=O)c2c(C)c(C(=O)C(=O)NC3(CC(=O)O)CCNCC3)n(C)c2C)ccc1F [Example 145, 2-(4-(2-(4-((4-fluoro-3-methylphenyl)carbamoyl)-1,3,5-trimethyl-1H-pyrrol-2-yl)-2-oxoacetamido)piperidin-4-yl)acetic acid] | 50 to 499 | > 30000 |
| CCC(CC)NC(=O)C(=O)c1c(C)c(C(=O)Nc2ccc(F)c(C)c2)c(C)n1C [Example 188, N-(4-fluoro-3-methylphenyl)-1,2,4-trimethyl-5-(2-oxo-2-(pentan-3-ylamino)acetyl)-1H-pyrrole-3-carboxamide] | < 50 | 5000 to 30000 |
| Cc1cc(NC(=O)c2c(C)c(C(=O)C(=O)N[C@]3(C)C[C@H](O)C3)n(C)c2-c2ccsc2)ccc1F [Example 181, N-(4-fluoro-3-methylphenyl)-5-(2-(((1s,3s)-3-hydroxy-1-methylcyclobutyl)amino)-2-oxoacetyl)-1,4-dimethyl-2-(thiophen-3-yl)-1H-pyrrole-3-carboxamide] | 500 to 1000 | 5000 to 30000 |
| Cc1cc(NC(=O)c2c(C)c(C(=O)C(=O)N[C@]3(C)CC[C@H](O)CC3)n(C)c2C2CC2)ccc1F [Example 114, 2-cyclopropyl-N-(4-fluoro-3-methylphenyl)-5-(2-(((1s,4s)-4-hydroxy-1-methylcyclohexyl)amino)-2-oxoacetyl)-1,4-dimethyl-1H-pyrrole-3-carboxamide] | < 50 | > 30000 |
| Cc1cc(NC(=O)c2c(C)c(C(=O)C(=O)NCC(C)(C)O)n(C)c2C2CCCCC2)ccc1F [Example 120, 2-cyclohexyl-N-(4-fluoro-3-methylphenyl)-5-(2-((2-hydroxy-2-methylpropyl)amino)-2-oxoacetyl)-1,4-dimethyl-1H-pyrrole-3-carboxamide] | > 1000 | > 30000 |
| Cc1cc(NC(=O)c2c(C)c(C(=O)C(=O)N[C@@H]3CCN[C@H](C(=O)O)C3)n(C)c2C)ccc1F [Example 180, (2S,4R)-4-(2-(4-((4-fluoro-3-methylphenyl)carbamoyl)-1,3,5-trimethyl-1H-pyrrol-2-yl)-2-oxoacetamido)piperidine-2-carboxylic acid] | > 1000 | > 30000 |
| CCN(C(=O)C(=O)c1c(C)c(C(=O)Nc2ccc(F)c(C)c2)c(C)n1C)C(C)C [Example 186, 5-(2-(ethyl(isopropyl)amino)-2-oxoacetyl)-N-(4-fluoro-3-methylphenyl)-1,2,4-trimethyl-1H-pyrrole-3-carboxamide] | 500 to 1000 | > 30000 |
| Cc1cc(NC(=O)c2c(C)c(C(=O)C(=O)N[C@H]3CN[C@H](C(=O)O)C3)n(C)c2C)ccc1F [Example 173, (2S,4R)-4-(2-(4-((4-fluoro-3-methylphenyl)carbamoyl)-1,3,5-trimethyl-1H-pyrrol-2-yl)-2-oxoacetamido)pyrrolidine-2-carboxylic acid] | 500 to 1000 | > 30000 |
| Cc1cc(NC(=O)c2c(C)c(C(=O)C(=O)N[C@H]3CC[C@@H](S(C)(=O)=O)CC3)n(C)c2C(C)C)ccc1F [Example 110, N-(4-fluoro-3-methylphenyl)-2-isopropyl-1,4-dimethyl-5-(2-(((1s,4s)-4-(methylsulfonyl)cyclohexyl)amino)-2-oxoacetyl)-1H-pyrrole-3-carboxamide] | 500 to 1000 | > 30000 |
| Cc1cc(NC(=O)c2c(C)c(C(=O)C(=O)N[C@H]3CC[C@@H](S(C)(=O)=O)CC3)n(C)c2C2CC2)ccc1F [Example 129, 2-cyclopropyl-N-(4-fluoro-3-methylphenyl)-1,4-dimethyl-5-(2-(((1s,4s)-4-(methylsulfonyl)cyclohexyl)amino)-2-oxoacetyl)-1H-pyrrole-3-carboxamide] | < 50 | > 30000 |
| Cc1cc(NC(=O)c2c(C)c(C(=O)C(=O)N[C@H]3CC[C@@H](S(C)(=O)=O)CC3)n(C)c2CC2CC2)ccc1F [Example 124, 2-(cyclopropylmethyl)-N-(4-fluoro-3-methylphenyl)-1,4-dimethyl-5-(2-(((1s,4s)-4-(methylsulfonyl)cyclohexyl)amino)-2-oxoacetyl)-1H-pyrrole-3-carboxamide] | 50 to 499 | > 30000 |
| Cc1cc(NC(=O)c2c(C)c(C(=O)C(=O)N[C@]3(C)CC[C@H](O)CC3)n(C)c2-c2ccccn2)ccc1F [Example 157, N-(4-fluoro-3-methylphenyl)-5-(2-(((1s,4s)-4-hydroxy-1-methylcyclohexyl)amino)-2-oxoacetyl)-1,4-dimethyl-2-(pyridin-2-yl)-1H-pyrrole-3-carboxamide] | 50 to 499 | > 30000 |
| CC(=O)N1CC[C@@H](NC(=O)C(=O)c2c(C)c(C(=O)Nc3ccc(F)c(C)c3)c(C)n2C)[C@H](O)C1 [Example 167, 5-(2-(((3R,4R)-1-acetyl-3-hydroxypiperidin-4-yl)amino)-2-oxoacetyl)-N-(4-fluoro-3-methylphenyl)-1,2,4-trimethyl-1H-pyrrole-3-carboxamide] | 500 to 1000 | > 30000 |
